Data from the NIST ThermoML archive (doi:10.1016/j.fluid.2017.03.008).

How the values were obtained:
[1] = refractive index (Na D-line) (dimensionless); xn = mol fraction of the nth substance listed; conditions: 101.3 kPa, Liquid, Standard Abbe refractometry
[2] = xn = mol fraction of the nth substance listed; conditions: for surface tension liquid-gas: Ring tensiometer; for viscosity / mass density: 101.3 kPa, Liquid; for viscosity: Capillary tube (Ostwald / Ubbelohde) method; for mass density: Vibrating tube method

C[N+](C)(C)CCO.[Cl-] [choline chloride] + NCCO
Conditions	mass density, [2] [kg/m3]	refractive index, [1]	surface tension liquid-gas, [2] [mN/m]	viscosity, [2] [mPa·s]
298.15 K, x1 = 0.11	1062.8	1.47733	49.6	32.7
298.15 K, x1 = 0.13	1065	1.47875	49.2	37.7
298.15 K, x1 = 0.14	1069	1.48117	48.7	36.7
298.15 K, x1 = 0.16	1076.7	1.48388	48.2	48.5
308.15 K, x1 = 0.11	1055.2	1.47404	48.8	22.6
308.15 K, x1 = 0.13	1057.6	1.47541	48.5	25.5
308.15 K, x1 = 0.14	1061.7	1.47797	48	25
308.15 K, x1 = 0.16	1069.6	1.47998	47.6	28.8
318.15 K, x1 = 0.11	1047.8	1.47092	47.9	15
318.15 K, x1 = 0.13	1050.3	1.47217	47.8	13.8
318.15 K, x1 = 0.14	1054.4	1.47445	47.4	16.8
318.15 K, x1 = 0.16	1062.7	1.47623	46.9	20.1
328.15 K, x1 = 0.11	1040.4	1.46759	47.2	10.5
328.15 K, x1 = 0.13	1043	1.46908	47.1	10.1
328.15 K, x1 = 0.14	1047.2	1.47101	46.7	11.2
328.15 K, x1 = 0.16	1055.9	1.47257	46.2	13.5
338.15 K, x1 = 0.11	1033	1.46419	46.4	7.1
338.15 K, x1 = 0.13	1035.6	1.46539	46.4	7.9
338.15 K, x1 = 0.14	1039.9	1.46761	46	8.8
338.15 K, x1 = 0.16	1049	1.46842	45.6	9.8
348.15 K, x1 = 0.11	1025.6	1.46095	45.8	5.9
348.15 K, x1 = 0.13	1028.3	1.46171	45.8	6
348.15 K, x1 = 0.14	1032.6	1.46444	45.3	6.6
348.15 K, x1 = 0.16	1042	1.46421	45	7.5
358.15 K, x1 = 0.11	1018.1	1.45742	45	4.7
358.15 K, x1 = 0.13	1020.9	1.45833	44.9	5.2
358.15 K, x1 = 0.14	1025.3	1.46049	44.7	5.3
358.15 K, x1 = 0.16	1035	1.46031	44.4	5.9
